Assay results as given in patent US9505769B2 (ASCENEURON SA, priority 2013, dated 2016).
pEC50: −log10 of the molar value.

These compounds were tested against T1, human muscarinic acetylcholine M1 receptor (Homo sapiens, UniProt P11229) (assay: M1 PAM Assay (IP-One HTRF, IP1 accumulation in M1-CHO cells)). Conditions: not given.
T1 construct: expressed in transfected cells; host or cells: CHO-K1
T1 sequence (P11229 1-460): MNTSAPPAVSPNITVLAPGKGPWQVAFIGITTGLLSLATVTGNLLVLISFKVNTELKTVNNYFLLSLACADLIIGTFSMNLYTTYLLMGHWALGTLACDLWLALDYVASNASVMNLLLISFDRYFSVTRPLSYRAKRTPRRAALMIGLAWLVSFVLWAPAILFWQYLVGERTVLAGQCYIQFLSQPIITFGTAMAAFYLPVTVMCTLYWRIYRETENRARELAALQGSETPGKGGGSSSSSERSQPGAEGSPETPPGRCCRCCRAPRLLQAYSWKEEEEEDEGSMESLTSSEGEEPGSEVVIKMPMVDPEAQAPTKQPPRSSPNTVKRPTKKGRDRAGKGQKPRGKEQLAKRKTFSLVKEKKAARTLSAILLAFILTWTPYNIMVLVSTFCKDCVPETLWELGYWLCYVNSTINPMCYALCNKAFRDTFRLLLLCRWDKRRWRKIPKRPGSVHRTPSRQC
Type: cell-based
Experimental: Then diluted compounds (0.6% DMSO final concentration) are added together with EC20 of acetylcholine and incubated with the cells for 30 min at 37° C., 5% CO2.
CHO-K1 cells stably transfected with human muscarinic acetylcholine M1 receptor are cultured in Ham's F12 medium containing 10% heat inactivated fetal calf serum, 2 mM L-glutamine and Penicillin-Streptomycin grown in a humidified atmosphere at 5% CO2/95% air at 37° C.

| Compound | pEC50 |
| --- | --- |
| O=C(c1ccc(F)cc1O[C@H]1C[C@H]2CC[C@@H](C1)N2CC1CC1)N1Cc2nn3cc(Cl)cnc3c2C1 [Example 59, (3-chloro-7H-pyrrolo[3′,4′:3,4]pyrazolo[1,5-a]pyrimidin-8(9H)-yl)(2-{[(3-endo)-8-(cyclopropylmethyl)-8-azabicyclo[3.2.1]oct-3-yl]oxy}-4-fluorophenyl)methanone] | > 6.70 |
| CN1[C@@H]2CC[C@H]1C[C@@H](Oc1cc(F)ccc1C(=O)N1Cc3nn4cc(C5CC5)cnc4c3C1)C2 [Example 74, (3-cyclopropyl-7H-pyrrolo[3′,4′:3,4]pyrazolo[1,5-a]pyrimidin-8(9H)-yl)(4-fluoro-2-{[(3-endo)-8-methyl-8-azabicyclo[3.2.1]oct-3-yl]oxy}phenyl)methanone] | > 6.70 |
| CCN1[C@@H]2CC[C@H]1C[C@@H](Oc1cc(F)ccc1C(=O)N1Cc3nn4cc(Cl)cnc4c3C1)C2 [Example 63, (3-chloro-7H-pyrrolo[3′,4′:3,4]pyrazolo[1,5-a]pyrimidin-8(9H)-yl)(2-{[(3-endo)-8-ethyl-8-azabicyclo[3.2.1]oct-3-yl]oxy}-4-fluorophenyl)methanone] | > 6.70 |
| O=C(c1ccc(F)cc1O[C@H]1C[C@H]2CC[C@@H](C1)N2CCO)N1Cc2nn3cc(Cl)cnc3c2C1 (single isomer, unassigned) [Example 50, (3-chloro-7H-pyrrolo[3′,4′:3,4]pyrazolo[1,5-a]pyrimidin-8(9H)-yl)(4-fluoro-2-{[(3-endo)-8-(2-hydroxyethyl)-8-azabicyclo[3.2.1]oct-3-yl]oxy}phenyl)methanone] | 6.00 to 6.70 |
| Cc1nc2c3c(nn2c(C)c1Cl)CN(C(=O)c1ccc(F)cc1O[C@H]1C[C@H]2CC[C@@H](C1)N2CCF)C3 [Example 36, (3-chloro-2,4-dimethyl-7H-pyrrolo[3′,4′:3,4]pyrazolo[1,5-a]pyrimidin-8(9H)-yl)(4-fluoro-2-{[(3-endo)-8-(2-fluoroethyl)-8-azabicyclo[3.2.1]oct-3-yl]oxy}phenyl)methanone] | > 6.70 |

Same assay, conditions: CHO-K1 cells stably transfected with human M1 receptor; compounds added with EC20 of acetylcholine (25 nM), 30 min; intracellular IP1 by IP-One HTRF; read-out: M1 PAM EC50

| Compound | pEC50 |
| --- | --- |
| CN1CCC(Oc2cc(F)ccc2C(=O)N2Cc3nn4cc(Cl)cnc4c3C2)CC1 [Example 12, (3-chloro-7H-pyrrolo[3′,4′:3,4]pyrazolo[1,5-a]pyrimidin-8(9H)-yl)(4-fluoro-2-((1-methylpiperidin-4-yl)oxy)phenyl)methanone] | 6.00 to 6.70 |
| Cc1nc2c3c(nn2c(C)c1Cl)CN(C(=O)c1ccc(F)cc1OCCN1CC[C@@H](F)C1)C3 [Example 62, (6-Chloro-5,7-dimethyl-1H,3H-2,4,7a,8-tetraaza-cyclopenta[a]inden-2-yl)-{4-fluoro-2-[2-((R)-3-fluoro-pyrrolidin-1-yl)-ethoxy]-phenyl}-methanone] | 6.00 to 6.70 |
| Cc1nc2c3c(nn2c(C)c1Cl)CN(C(=O)c1ccccc1O[C@H]1CNC[C@H]1F)C3 (racemic) [Example 25, (syn)-(6-Chloro-5,7-dimethyl-1H,3H-2,4,7a,8-tetraaza-cyclopenta[a]inden-2-yl)-[2-(4-fluoro-pyrrolidin-3-yloxy)-phenyl]-methanone] | 6.00 to 6.70 |
| Cc1nc2c3c(nn2c(C)c1Cl)CN(C(=O)c1ccc(F)cc1OCc1cccnc1)C3 [Example 19, (6-Chloro-5,7-dimethyl-1H,3H-2,4,7a,8-tetraaza-cyclopenta[a]inden-2-yl)-[4-fluoro-2-(pyridin-3-ylmethoxy)-phenyl]-methanone] | 5.52 to 6.00 |

Now from value to compound:

| pEC50 | Compound |
| --- | --- |
| 5.52 to 6.00 | (syn)-(6-Chloro-5,7-dimethyl-1H,3H-2,4,7a,8-tetraaza-cyclopenta[a]inden-2-yl)-[4-fluoro-2-(4-fluoro-cyclohexyloxy)-phenyl]-methanone or (anti)-(6-Chloro-5,7-dimethyl-1H,3H-2,4,7a,8-tetraaza-cyclopenta[a]inden-2-yl)-[4-fluoro-2-(4-fluoro-cyclohexyloxy)-phenyl]-methanone [Example 54] |
| > 6.70 | Cc1nc2c3c(nn2c(C)c1Cl)CN(C(=O)c1ccc(F)cc1OC[C@H]1CC(F)(F)CN1)C3 [Example 56, (6-Chloro-5,7-dimethyl-1H,3H-2,4,7a,8-tetraaza-cyclopenta[a]inden-2-yl)-[2-((R)-4,4-difluoro-pyrrolidin-2-ylmethoxy)-4-fluoro-phenyl]-methanone] |
| 6.00 to 6.70 | O=C(c1ccc(F)cc1OC1CCN(CCO)CC1)N1Cc2nn3cc(Cl)cnc3c2C1 [Example 35, (3-chloro-7H-pyrrolo[3′,4′:3,4]pyrazolo[1,5-a]pyrimidin-8(9H)-yl)(4-fluoro-2-((1-(2-hydroxyethyl)piperidin-4-yl)oxy)phenyl)methanone] |
| 6.00 to 6.70 | Cc1nc2c3c(nn2c(C)c1Cl)CN(C(=O)c1ccccc1O[C@H]1CNC[C@@H]1O)C3 (racemic) [Example 4, (anti)-(6-Chloro-5,7-dimethyl-1H,3H-2,4,7a,8-tetraaza-cyclopenta[a]inden-2-yl)-[2-(4-hydroxy-pyrrolidin-3-yloxy)-phenyl]-methanone] |
| 5.52 to 6.00 | Cc1nc2c3c(nn2c(C)c1Cl)CN(C(=O)c1ccccc1C(C)N1CCN(C)CC1)C3 (centres unmarked) [Example 7, (3-chloro-2,4-dimethyl-7H-pyrrolo[3′,4′:3,4]pyrazolo[1,5-a]pyrimidin-8(9H)-yl)(2-(1-(4-methylpiperazin-1-yl)ethyl)phenyl)methanone] |
| 6.00 to 6.70 | Cc1nc2c3c(nn2c(C)c1Cl)CN(C(=O)c1ccc(F)cc1OC[C@H]1C[C@H](F)CN1)C3 [Example 55, (6-Chloro-5,7-dimethyl-1H,3H-2,4,7a,8-tetraaza-cyclopenta[a]inden-2-yl)-[4-fluoro-2-((2R,4S)-4-fluoro-pyrrolidin-2-ylmethoxy)-phenyl]-methanone] |
| 6.00 to 6.70 | Cc1ccc(CCOc2cc(F)ccc2C(=O)N2Cc3nn4c(C)c(Cl)c(C)nc4c3C2)cn1 [Example 42, (3-chloro-2,4-dimethyl-7H-pyrrolo[3′,4′:3,4]pyrazolo[1,5-a]pyrimidin-8(9H)-yl)(4-fluoro-2-(2-(6-methylpyridin-3-yl)ethoxy)phenyl)methanone] |
| > 6.70 | Cc1nc2c3c(nn2c(C)c1Cl)CN(C(=O)c1ccc(F)cc1OC1CCN(CCO)CC1)C3 [Example 32, (6-Chloro-5,7-dimethyl-1H,3H-2,4,7a,8-tetraaza-cyclopenta[a]inden-2-yl)-{4-fluoro-2-[1-(2-hydroxy-ethyl)-piperidin-4-yloxy]-phenyl}-methanone] |
| 5.52 to 6.00 | Cc1nc2c3c(nn2c(C)c1Cl)CN(C(=O)c1ccccc1O[C@H]1CCCC[C@@H]1O)C3 (racemic) [Example 17, (anti)-(3-chloro-2,4-dimethyl-7H-pyrrolo[3′,4′:3,4]pyrazolo[1,5-a]pyrimidin-8(9H)-yl)(2-((2-hydroxycyclohexyl)oxy)phenyl)methanone] |
| 6.00 to 6.70 | Cc1nc2c3c(nn2c(C)c1Cl)CN(C(=O)c1ccc(C#N)cc1OCCN(C)C)C3 [Example 14, 4-(3-chloro-2,4-dimethyl-8,9-dihydro-7H -pyrrolo[3′,4′:3,4]pyrazolo[1,5-a]pyrimidine-8-carbonyl)-3-(2-(dimethylamino)ethoxy)benzonitrile] |
| 5.52 to 6.00 | Cc1nc2c3c(nn2c(C)c1Cl)CN(C(=O)c1ccccc1O[C@H]1COC[C@@H]1O)C3 (racemic) [Example 21, (anti)-(3-chloro-2,4-dimethyl-7H-pyrrolo[3′,4′:3,4]pyrazolo[1,5-a]pyrimidin-8(9H)-yl)(2-((4-hydroxytetrahydrofuran-3-yl)oxy)phenyl)methanone] |
